The source of these data is patent US20100273732A1, “COMBINATION METHODS OF TREATING CANCER” (priority 2003, published 2010).

Where two headings read alike, the source gives them in different places.

In one assay the test system is T24 cell line. Kind of assay: Cell proliferation and viability count, SAHA and 5-azacytidine, T24. It counts as cell-based, human. As to conditions: 200 nM 5-azacytidine (27.5 h pre-incubation), 5 μM SAHA or both. Here is the method: Cells were cultured in T-150 flasks at 37° C. in RPMI with 10% FCS. Cells were diluted in a complete medium to a density of 5.0×10^4 cells/ml. The cells were incubated at 37° C. for 14 hours before treatment with 5-azacytidine to allow cells to adhere to the wells.
Concentrations of 5-azacytidine were prepared by serial dilution of from a 1 mM stock. After 14-hour incubation in complete medium, wells were aspirated and the medium was replaced to 1 ml of 5-azacytidine at the indicated concentration.
(§1) To assay for proliferation and viability, triplicate samples of cells were harvested and counted for proliferation and viability at the indicated time points as described above in Example 2.

For the next assay, the system named is LnCap cell line. Kind of assay: Cell proliferation and viability count, SAHA and gemcitabine, LnCap. Conditions: 2 nM gemcitabine, 5 μM SAHA or both, 72 hours. The assay is classed as cell-based, human. Here is the method:
Cells were plated at a density of 2.5×10^4 cells/ml in RMPI medium with 10% FCS, and were allowed to adhere to wells.
Gemcitabine was reconstituted in medium and the pH was adjusted to 7 using 1N NaOH. Concentrations of gemcitabine were prepared by serial dilution of gemcitabine in complete medium.
The cells were then cultured with medium containing the compound or combination of compounds.
as §1

For assay [1], the system named is carcinogen-induced (N-methylnitrosourea) mammary tumors. Conditions: rats; SAHA in diet over 130 days; cited from earlier work.
The next assay deals with LnCap (prostate) cells. Kind of assay: alamarBlue proliferation inhibition, drug combination experiments, LnCap. It counts as cell-based. As to conditions: Homo sapiens, 96 h. Here is the method:
(§2) Drug combination experiments were performed on five human cancer cell lines: T24 (bladder carcinoma), LnCap (prostate), MCF7 (breast), DLCL (non-Hodgkin's lymphoma) and LCC18 (colon carcinoid). Each cell line was cultured and incubated at 37° C. in its required medium: MEM a (10% FCS), RPMI 1640 (10% FCS), DME HG (10% FCS), enhanced RPMI (10% FCS), and Hites medium (5% FCS), respectively.
(§3) DLCL, a suspension cell line, was plated on 96 well plates on the same day of the experiment. For T24, LnCap, DLCL and LCC18, 200 μL containing 2000 cells were plated into each well. For MCF7, 4000 cells/well were plated to account for the line's slower cell cycle.
(§4) Cells that received no treatment served as a control group.
(§5) To administer treatment to adherent cell lines (T24, LnCap, MCF7), media in each well was aspirated and replaced with 200 μL of media containing desired concentration of drug or drugs. For all other cell lines ([…] and DLCL), 22 μL of media containing 10 times the desired concentration of drug or drugs was added to 200 μL of media in each well.
(§6) After treatment, cells were incubated at 37° C. for 4 days. On the fourth day, each well was treated with 20 μL of alamarBlur™, an aqueous dye, and incubated for 4 hours at 37° C. The reduction of this dye, when absorbed by cells, is greater in proliferating cells than in non-proliferating cells because of an increased concentration of NADPH, FADH, FMNH and NADH. The reduction was measured by fluorescence using a SpectaMax GeminiXS® spectrofluorometric microtiter well plate reader (Molecular Devices Corporation, Sunnyvale, Calif.). Data was expressed as fluorescence emission intensity units as a function of time of incubation and analyzed using SOFTmax PRO® v. 4.0 software (Molecular Devices Corp. Sunnyvale, Calif.). In order to assess the percent inhibition of cell growth four days after drug treatment, the following formula was used:
(§7) 100−(Mean Intensity Units/Well with Identical Treatment)*100(Mean Intensity Units/Well in Control Group)
(§8) The concentrations used for treatment with each drug are based on the dose that inhibits 50% of proliferation for each drug. The following concentrations were tested:
(§9) a) 50% effective dose/4; b) 50% effective dose/2; c) 50% effective dose; d) 50% effective dose*2; and e) 50% effective dose*4. […] A polynomial relationship was defined between drug concentration and percent inhibition using various concentrations, and this function was used to predict the concentration of each drug required to inhibit proliferation of 50% of the cells.
(§10) The following criteria were established for assessing additive, synergistic and antagonistic interactions: […]
For orientation: Resazurin is reduced to fluorescent resorufin, in cell work by metabolically active cells.

Assay [2] deals with T24 (bladder carcinoma) cells. Put plainly: alamarBlue proliferation inhibition, drug combination experiments, T24. The assay is classed as cell-based. Conditions: Homo sapiens, 96 h, read-out: 50% inhibition Effective Dose, T24, 4 days. Here is the method:
as §2, §3, §4, §5, §6, §7, §8, §9, §10

Where [3] appears, read: read-out: 50% inhibition Effective Dose, LnCap, agent alone, 4 days.
Setting [4] is: read-out: 50% inhibition Effective Dose, LnCap, in combination with SAHA 0.125 μM, 4 days.
The mark [5] stands for this setting: read-out: 50% inhibition Effective Dose, LnCap, in combination with SAHA 0.25 μM, 4 days.
[6] abbreviates: read-out: 50% inhibition Effective Dose, LnCap, in combination with SAHA 0.5 μM, 4 days.
Where [7] appears, read: read-out: 50% inhibition Effective Dose, LnCap, in combination with SAHA 1.0 μM, 4 days.
Setting [8] is: read-out: 50% inhibition Effective Dose, LnCap, in combination with SAHA 2.0 μM, 4 days.
Setting [9] is: in combination with SAHA 0.625 μM.
Where [10] appears, read: in combination with SAHA 1.25 μM.
[11] abbreviates: in combination with SAHA 2.5 μM.
[12] abbreviates: in combination with SAHA 5.0 μM.
Where [13] appears, read: in combination with SAHA 10.0 μM.

On to `Nc1ncn([C@@H]2O[C@H](CO)[C@@H](O)[C@H]2O)c(=O)n1` [5-azacytidine], for which, in the assay with T24 cell line, the “Effect on cell proliferation (FIG. 3)” value was “significantly inhibited proliferation”.

On to `Nc1ccn([C@@H]2O[C@H](CO)[C@@H](O)C2(F)F)c(=O)n1` [gemcitabine], for which the “Effect on cell proliferation (FIG. 2)” value in the assay on LnCap cell line is on record as “small effect”.

For `O=C(CCCCCCC(=O)Nc1ccccc1)NO` [SAHA, suberoylanilide hydroxamic acid], the “Effect on cell proliferation (FIG. 3)” value in the assay on T24 cell line is “significantly inhibited proliferation”. In assay [1], the “Development and continued growth of mammary tumors” value was “effective at inhibiting the development and continued growth”. Further, in the assay on LnCap cell line, the “Effect on cell proliferation (FIG. 2)” value is on record as “significantly inhibited proliferation”.

With `CCc1c2c(nc3ccc(OC(=O)N4CCC(N5CCCCC5)CC4)cc13)-c1cc3c(c(=O)n1C2)COC(=O)[C@]3(O)CC` [Irinotecan], the IC50 in the assay on LnCap (prostate) cells (setting [3]) is 5.1 nM; in the assay with LnCap (prostate) cells (setting [4]), 5.1 nM; in the assay on LnCap (prostate) cells (setting [5]), 4.1 nM; in the assay on LnCap (prostate) cells (setting [6]), 3.8 nM; in the assay on LnCap (prostate) cells (setting [7]), 1.9 nM; in the assay on LnCap (prostate) cells (setting [8]), 1.9 nM. Further, the IC50 turned out to be 5.1 nM in assay [2] (agent alone); 4.1 nM in assay [2] (setting [9]); 2.8 nM in assay [2] (setting [10]); 1.9 nM in assay [2] (setting [11]); 1.4 nM in assay [2] (setting [12]); 0.28 nM in assay [2] (setting [13]).

`O=c1[nH]cc(F)c(=O)[nH]1` [5-FU, 5-Fluorouracil]: the IC50 with LnCap (prostate) cells (setting [3]) was 3000 nM; with LnCap (prostate) cells (setting [4]) it was 5200 nM; in the assay with LnCap (prostate) cells (setting [6]), 1600 nM; in the assay on LnCap (prostate) cells (setting [7]), 1900 nM; in the assay on LnCap (prostate) cells (setting [8]) it was 990 nM; in assay [2] (agent alone), 14000 nM. Moreover, the IC50 was 13100 nM in assay [2] (setting [9]), 11500 nM in assay [2] (setting [10]), 2700 nM in assay [2] (setting [12]) and 1500 nM in assay [2] (setting [13]).

With `CC(=O)O[C@@]12CO[C@@H]1C[C@H](O)[C@@]1(C)C(=O)[C@H](O)C3=C(C)[C@@H](OC(=O)[C@H](O)[C@@H](NC(=O)OC(C)(C)C)c4ccccc4)C[C@@](O)([C@@H](OC(=O)c4ccccc4)[C@H]21)C3(C)C` [Docetaxel], the IC50 came out at 2.1 nM in the assay with LnCap (prostate) cells (setting [3]); 1.2 nM in the assay on LnCap (prostate) cells (setting [4]); 1.2 nM with LnCap (prostate) cells (setting [5]); 0.6 nM in the assay on LnCap (prostate) cells (setting [6]); 0.34 nM with LnCap (prostate) cells (setting [7]); 0.12 nM with LnCap (prostate) cells (setting [8]). Also, the IC50 came to 2.1 nM in assay [2] (agent alone); 0.51 nM in assay [2] (setting [9]); 0.72 nM in assay [2] (setting [10]); 0.59 nM in assay [2] (setting [11]); 0.29 nM in assay [2] (setting [12]); 0.05 nM in assay [2] (setting [13]).
